Assays:
MV3 melanoma cells = assay: 3D cell morphology analysis (blebs, surface curvature) of MV3 cells; type: cell-based, human
Experimental: (§1) Cells Embedded in 3D Collagen.
(§2) 3D Light-Sheet Imaging. […] All images were saved in the OME-TIFF format.
3D Cell Image Analysis. Cell morphology and septin localization were analyzed principally via u-shape3D similar to the protocol described in Driscoll et al. Nature Methods. 16, 1037-1044 (2019), the disclosure of which is incorporated herein in its entirety. Briefly, 3D images were first deconvolved using either a Richardson-Lucy or Wiener algorithm with an experimentally measured point spread function. Cells were next segmented from the image background using u-shape3D's ‘twoLevel’ mode, which combines a straightforward Otsu threshold of the image to detect the outer cell surface with a blurred version of the image to segment the inside of the cell. The volume segmented from the blurred image was morphologically eroded to ensure the fidelity of the overall segmentation. Cell surfaces were then represented as triangle meshes, and the mean surface curvature at every triangle was calculated according to methods described in Driscoll et al. Nature Methods. 16, 1037-1044 (2019) and Elliott et al., Nat. […] To remove irregularities, the curvature was next smoothed in real space with a median filter of 1 pixel to remove infinities and then slightly diffused along the mesh. Septin and NRAS localization was measured from fluorescence images by extending a sphere of either 1 μm (for septins) or 2 μm (for NRAS) about each mesh triangle and mapping to the triangle the average intensity both within that sphere and the cell. Image intensity was not depth normalized prior to analysis, but was instead measured from the raw, undeconvolved image. […]
Blebs were also detected according to methods similar to that described in Driscoll et al. Nature Methods. […] Distances from bleb edges were then calculated as the geodesic distance from each triangle to the nearest bleb edge. […] Bleb and septin directional correlations were calculated using spherical statistics, in particular by fitting spherical normal distributions to distributions defined at each mesh triangle.

[1] = system: cortical septin structures in MV3 cells; assay: Cortical septin localization (SEPT6-GFP) in MV3 cells; type: cell-based, human
Experimental: as §1
Cells Grown in VitroGel Coffins. VitroGel coffins were prepared by embedding MV3 or A375 cells in VitroGel 3D or RGD at 1:1 dilution according to manufacturer's instructions (TheWell Biosciences, sku #TWG001). […] A 1:1 solution of VitroGel and VitroGel Dilution Solution was made and added to cell suspension at a ratio of 4:1 (VitroGel: cells) using gentle pipetting until well-mixed (with care taken not to form bubbles). Cell/VitroGel solution was transferred to an 8-well uncoated ibidi μ-slide (ibidi cat #80821) at 100 μl/well, spread over the bottom of wells with a pipette tip, and allowed to polymerize at room temperature for 15 minutes. The remainder of the well was then filled with 10% FBS DMEM and slide was stored at 37° C. and 5% CO2 for either 24 hrs for viability assays, 3 hrs for ERK activity assays, or 1 hour for visualization of septins/PI3K activity.
as §2
3D Cell Image Analysis. Cell morphology and septin localization were analyzed principally via u-shape3D similar to the protocol described in Driscoll et al. Nature Methods. 16, 1037-1044 (2019), the disclosure of which is incorporated herein in its entirety. Briefly, 3D images were first deconvolved using either a Richardson-Lucy or Wiener algorithm with an experimentally measured point spread function. […] Cell surfaces were then represented as triangle meshes, and the mean surface curvature at every triangle was calculated according to methods described in Driscoll et al. Nature Methods. […] Septin and NRAS localization was measured from fluorescence images by extending a sphere of either 1 μm (for septins) or 2 μm (for NRAS) about each mesh triangle and mapping to the triangle the average intensity both within that sphere and the cell. Image intensity was not depth normalized prior to analysis, but was instead measured from the raw, undeconvolved image. […]
Cortical septin levels were quantified by measuring the mean cytoplasmic intensity of each cell using hand-drawn ROIs that excluded nuclei (performed with the FIJI ImageJ package), and then calculating for each cell its fraction of cortical voxels (intracellular voxels within 0.96 μm of the u-Shape3D-derived surface) that were higher than that cell's mean cytoplasmic intensity (performed using a MATLAB script). NRAS enrichment at the surface was quantified by first calculating the total amount of intracellular signal expected to be within 0.96 μm of the surface if the cell's signal was homogenously distributed between all voxels, and then calculating the percent change between this value and the observed value for each cell. […]

Compound	blebbiness (MV3 melanoma cells; MV3, FCF treatment)	cortical septin structures ([1]; MV3 SEPT6-GFP, FCF treatment)	bleb density (fraction of cell surface comprised of blebs) (MV3 melanoma cells; MV3 cells, different concentrations of WGA, morphological motif analysis)	mean plasma membrane curvature above K=0.4 μm-1 (MV3 melanoma cells; control vs WGA-treated MV3 cells)	cortical septin levels (fraction of cortical voxels above mean cytoplasmic SEPT6-GFP intensity) ([1]; MV3, relative to control conditions)	septin localization (cortical levels) ([1]; MV3 SEPT6-GFP, WGA (50 ug/ml), VitroGel, H1152 (1 μM), NSC668394 (10 μM))
O=C(Nc1ccccc1)Nc1ccnc(Cl)c1 [FCF, forchlorfenuron]	without altering blebbiness	near-complete ablation of cortical septin structures				
wheat germ agglutinin [WGA]			dosage dependent inhibitor of bleb density	reduced	significantly reduced cortical septin levels	pronounced effects on septin localization, reducing cortical levels

Reference: US20250268980A1, “AN ANTICANCER THERAPY TARGETING RAS AND OTHER ONCOGENIC SIGNALS BY INHIBITION OF DYNAMIC BLEBBING AND/OR SEPTINS” (THE BOARD OF REGENTS OF THE UNIVERSITY OF TEXAS SYSTEM, priority 2022, published 2025)
